Data taken from patent publication US3988364A, “Novel N,N-di-substituted amidines and several acid-addition salts thereof” (Toyo Jozo Kabushiki Kaisha, priority 1972, dated 1976).
Where a name gives a salt, the structure may show the parent alone. Read-outs that look alike come from different tables or passages of the source.

How the values were obtained:
dogs = test: Antitussive activity (50%-antitussive effective dose AtD50; efficiency ratio relative to codeine phosphate); format: in vivo; details: for Antitussive Ratio: efficiency ratio relative to codeine phosphate; for ED50: Canis lupus familiaris, read-out: AtD50 (50%-antitussive effective dose)
Procedure: route of administration:
From the efficiency rate obtained upon each administration step, 50%-antitussive effective dose (AtD50) was calculated according to the Litchfield-Wilcoxon method. Further, efficiency ratio relative to codeine phosphate was also determined.

in vivo = format: in vivo; details: mouse, in vivo, sc, male ddy mice, subcutaneous injection, Litchfield-Wilcoxon
Excerpt: (§1) test animals: more than five groups, each group
consisting of five male mice of ddy-

male mice of ddy-strain = test: in vivo; format: in vivo; details: subcutaneous injection, 72 hours, Litchfield-Wilcoxon
Excerpt: as §1
consisting of five male mice of ddy-

persons = details: in words; inhibits long continuous administration; cited from earlier work
[1] = intravenous injection, Litchfield-Wilcoxon method
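Wherever LD50 is given: animals allocated into more than five groups, with five mice per group.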

Structure (SMILES)	Antitussive Ratio (dogs; intravenous injection)	LD50 at 72 h (in vivo)	ED50 (dogs; [1])	also measured
Cc1ccccc1NC(=NC1CCCCC1)c1ccccc1 [Compound 1, hydrochloric acid salt of N-cyclohexyl, N'-o-tolyl-benzamidine]	1.73	242 mg/kg	–	–
Cc1ccc(NC(=NC2CCCCC2)c2ccccc2)cc1 [Compound 2, hydrochloric acid salt of N-cyclohexyl, N'-p-tolyl-benzamidine]	0.58	186 mg/kg	–	–
CCc1ccc(N=C(NC2CCCCC2)c2ccccc2)cc1.Cl [Compound 3, N-cyclohexyl, N'-p-ethylphenyl-benzamidine hydrochloride]	0.95	218 mg/kg	–	–
Cc1cccc(NC(=NC2CCCCC2)c2ccccc2)c1C [Compound 4, hydrochloric acid salt of N-cyclohexyl, N'-2,3-xylyl-benzamidine]	1.21	117 mg/kg	–	–
COc1ccccc1N=C(NC1CCCCC1)c1ccccc1.Cl [Compound 5, N-cyclohexyl, N'-o-methoxyphenyl-benzamidine hydrochloride]	0.44	268 mg/kg	–	–
COc1cccc(N=C(NC2CCCCC2)c2ccccc2)c1.Cl [Compound 6, N-cyclohexyl, N'-m-methoxyphenyl-benzamidine hydrochloride]	1.20	78 mg/kg	–	–
c1ccc(C(=NC2CCCCC2)Nc2cccc3ccccc23)cc1 [Compound 7, N-cyclohexyl, N'-α-naphtyl-benzamidine hydrochloride]	0.79	> 800 mg/kg	–	–
Cc1cccc(C(=NC2CCCCC2)Nc2ccccc2)c1 [Compound 8, hydrochloric acid salt of N-cyclohexyl, N'-phenyl-m-toluamidine]	1.20	276 mg/kg	–	–
Cc1cccc(NC(=NC2CCCCC2)c2cccc(C)c2)c1 [Compound 9, hydrochloric acid salt of N-cyclohexyl, N'-m-tolyl-m-toluamidine]	1.20	445 mg/kg	–	–
Cc1ccc(C(=NC2CCCCC2)Nc2ccccc2)cc1 [Compound 10, hydrochloric acid salt of N-cyclohexyl, N'-phenyl-p-toluamidine]	0.83	186 mg/kg	–	–
Cl.c1ccc(N(CCN2CCCCC2)Cc2ccccn2)cc1 [Compound 11, picoperidamine hydrochloride, reference compound]	0.95	–	–	LD50 (male mice of ddy-strain): 144 mg/kg
Cl.Clc1ccc(C(OCCN2CCCCC2)c2ccccc2)cc1 (stereo not drawn) [Compound 13, Hustazol, reference compound]	0.52	–	–	LD50 (male mice of ddy-strain): 375 mg/kg
COc1ccc2c(c1)[C@]13CCCC[C@@H]1[C@H](C2)N(C)CC3 [Compound 15, dextrometrofan hydrobromide, reference compound]	0.15	153 mg/kg	–	–
COc1ccc2c(c1OC)C(=O)O[C@@H]2[C@H]1c2c(cc3c(c2OC)OCO3)CCN1C [Compound 16, noscapine hydrochloride, reference compound]	0.24	240 mg/kg	–	–
COc1ccc2c3c1O[C@H]1[C@@H](O)C=C[C@H]4[C@@H](C2)N(C)CC[C@@]341 [Compound 17, codeine phosphate, reference compound]	1.00	–	2.2 mg/kg	LD50 (male mice of ddy-strain): 190 mg/kg; habituation (persons): appreciable habituation
Cc1ccccc1C(=NC1CCCCC1)Nc1ccccc1 [Compound 18, N-cyclohexyl, N'-phenol-o-toluamidine hydrochloride]	–	740 mg/kg	–	ED50 (dogs; iv): 5.15 mg/kg
Cc1ccccc1N=C(NC1CCCCC1)c1ccccc1C.Cl [Compound 19, N-cyclohexyl, N'-o-tolyl-o-toluamidine hydrochloride]	–	650 mg/kg	5.15 mg/kg	–
Cc1cccc(N=C(NC2CCCCC2)c2ccccc2C)c1.Cl [Compound 20, N-cyclohexyl, N'-m-tolyl-o-toluamidine hydrochloride]	–	> 100 mg/kg	–	ED50 (dogs; iv): 4.29 mg/kg
Cc1ccc(N=C(NC2CCCCC2)c2ccccc2C)cc1.Cl [Compound 21, N-cyclohexyl, N'-p-tolyl-o-toluamidine hydrochloride]	–	160 mg/kg	3.58 mg/kg	–
Cc1ccccc1C(=NC1CCCCC1)Nc1cccc(C)c1C [Compound 22, N-cyclohexyl, N'-2,3,-xylyl-o-toluamidine hydrochloride]	–	> 1000 mg/kg	3.58 mg/kg	–
COc1ccccc1N=C(NC1CCCCC1)c1cccc(C)c1.Cl [Compound 23, N-cyclohexyl, N'-o-methoxyphenyl-m-toluamidine hydrochloride]	–	100 mg/kg	–	ED50 (dogs; iv): 4.29 mg/kg
COc1cccc(N=C(NC2CCCCC2)c2ccccc2C)c1.O=C(O)C(=O)O [Compound 24, N-cyclohexyl, N'-m-methoxyphenyl-o-toluamidine oxalate]	–	891 mg/kg	5.15 mg/kg	–

Structure (SMILES)	Antitussive Ratio (dogs; intravenous injection)	LD50 at 72 h (in vivo)	ED50 (dogs; [1])	also measured
Cc1ccc(N=C(NC2CCCCC2)c2cccc(C)c2)cc1.Cl [Compound 25, N-cyclohexyl, N'-p-tolyl-m-toluamidine hydrochloride]	–	900 mg/kg	4.29 mg/kg	–
Cc1cccc(C(=Nc2ccccc2C)NC2CCCCC2)c1.Cl [Compound 26, N-cyclohexyl, N'-o-tolyl-m-toluamidine hydrochloride]	–	740 mg/kg	2.98 mg/kg	–
CCc1ccccc1N=C(NC1CCCCC1)c1cccc(C)c1.Cl [Compound 27, N-cyclohexyl, N'-o-ethylphenyl-m-toluamidine hydrochloride]	–	> 1000 mg/kg	5.15 mg/kg	–
COc1cccc(N=C(NC2CCCCC2)c2cccc(C)c2)c1.O=C(O)C(=O)O [Compound 28, N-cyclohexyl, N'-m-methoxyphenyl-m-toluamidine oxalate]	–	743 mg/kg	5.15 mg/kg	–
Cc1ccc(C(=Nc2ccccc2C)NC2CCCCC2)cc1.Cl [Compound 29, N-cyclohexyl, N'-o-tolyl-p-toluamidine hydrochloride]	–	620 mg/kg	2.48 mg/kg	–
CCc1ccccc1N=C(NC1CCCCC1)c1ccc(C)cc1.Cl [Compound 30, N-cyclohexyl, N'-o-ethylphenyl-p-toluamidine hydrochloride]	–	> 1000 mg/kg	4.29 mg/kg	–
Cc1ccc(C(=NC2CCCCC2)Nc2cccc(C)c2C)cc1 [Compound 31, N-cyclohexyl, N'-2,3,-xylyl-p-toluamidine hydrochloride]	–	> 1000 mg/kg	2.07 mg/kg	–
Cc1ccc(C(=Nc2cccc(C)c2)NC2CCCCC2)cc1.Cl [Compound 32, N-cyclohexyl, N'-m-tolyl-p-toluamidine hydrochloride]	–	460 mg/kg	2.48 mg/kg	–
COc1cccc(N=C(NC2CCCCC2)c2ccc(C)cc2)c1.Cl [Compound 33, N-cyclohexyl, N'-m-methoxyphenyl-p-toluamidine hydrochloride]	–	600 mg/kg	5.15 mg/kg	–
COc1ccccc1C(=Nc1ccccc1)NC1CCCCC1.Cl [Compound 34, N-cyclohexyl, N'-phenyl-o-methoxy-benzamidine hydrochloride]	–	100 mg/kg	3.58 mg/kg	–
COc1ccccc1C(=Nc1cccc(C)c1)NC1CCCCC1.Cl [Compound 35, N-cyclohexyl, N'-m-tolyl-o-methoxy-benzamidine hydrochloride]	–	144 mg/kg	5.15 mg/kg	–
COc1ccccc1C(=Nc1ccccc1C)NC1CCCCC1.Cl [Compound 36, N-cyclohexyl, N'-o-tolyl-o-methoxy-benzamidine hydrochloride]	–	100 mg/kg	4.29 mg/kg	–
COc1cccc(N=C(NC2CCCCC2)c2ccccc2OC)c1.Cl [Compound 37, N-cyclohexyl, N'-m-methoxyphenyl-o-methoxybenzamidine hydrochloride]	–	207 mg/kg	2.98 mg/kg	–
COc1ccc(C(=Nc2ccccc2)NC2CCCCC2)cc1.Cl [Compound 38, N-cyclohexyl, N'-phenyl-p-anisamidine hydrochloride]	–	120 mg/kg	2.98 mg/kg	–
COc1ccc(C(=Nc2ccccc2C)NC2CCCCC2)cc1.Cl [Compound 39, N-cyclohexyl, N'-o-tolyl-p-anisamidine hydrochloride]	–	172 mg/kg	3.58 mg/kg	–
COc1ccc(C(=Nc2cccc(C)c2)NC2CCCCC2)cc1.Cl [Compound 40, N-cyclohexyl, N'-m-tolyl-p-anisamidine hydrochloride]	–	298 mg/kg	2.48 mg/kg	–
COc1ccc(C(=Nc2cccc(OC)c2)NC2CCCCC2)cc1.Cl [Compound 41, N-cyclohexyl, N'-m-methoxyphenyl-p-anisamidine hydrochloride]	–	248 mg/kg	2.98 mg/kg	–
CCc1ccccc1N=C(NC1CCCCC1)c1ccccc1.Cl [Compound 42, N-cyclohexyl, N'-o-ethylphenyl-benzamidine hydrochloride]	–	> 1000 mg/kg	4.29 mg/kg	–
Cc1cc(C)cc(N=C(NC2CCCCC2)c2ccccc2)c1.Cl [Compound 43, N-cyclohexyl, N'-3,5-xylyl-benzamidine hydrochloride]	–	660 mg/kg	3.58 mg/kg	–
CCc1cccc(N=C(NC2CCCCC2)c2ccccc2)c1.Cl [Compound 44, N-cyclohexyl, N'-m-ethylphenyl-benzamidine hydrochloride]	–	900 mg/kg	4.29 mg/kg	–
Cc1cccc(C)c1N=C(NC1CCCCC1)c1ccccc1.Cl [Compound 45, N-cyclohexyl, N'-2,6-xylyl-benzamidine hydrochloride]	–	248 mg/kg	4.29 mg/kg	–
Cc1cc(C)c(NC(=NC2CCCCC2)c2ccccc2)c(C)c1 [Compound 46, N-cyclohexyl, N'-2,4,6-trimethyl-phenyl-benzamidine hydrochloride]	–	120 mg/kg	5.15 mg/kg	–
